# Test results reported in patent publication EP0642343B1, “Acridine carboxamides for the treatment of cancer” (XENOVA LIMITED, priority 1992, dated 1993).
# Read-outs that look alike come from different tables or passages of the source.
# What was measured:
# [1] = system: subcutaneous melanoma xenografts growing in nude mice; conditions: summary given by Berger et al.; cited from earlier work
# [2] = system: panel of cell lines encompassing a number of tumour types; experiment: NCI cell line panel, growth inhibition by protein staining; type: cell-based; conditions: data provided by the National Cancer Institute
# Method: (§1) Tumour cell lines were cultured in 96-well plates. Growth of NCI cell lines was assessed using sulpho-rhodamine B staining (Skehan P., et al., J. Natl. Cancer Inst. 1990, 82, 1107-1112), that of the leukaemia lines with (4,5-dimethylthiazole-2-yl)-2,5-diphenyltetrazolium (MTT) staining (Mosmann T., J. Immun. Methods 1983, 65, 55-63) and that of the primary human tumour material by ^3H-thymidine incorporation (Marshall E.S., et al., J. Natl. Cancer Inst. 1992, 84, 341-344). Primary tumour material was cultured in 96-well plates in which the wells were coated with agarose to inhibit selectively the growth of normal cells. (Marshall E.S., et al., J. Natl. Cancer Inst. 1992, 84, 341-344). Primary cultures were incubated at 37°C in sealed perspex boxes containing a humidified atmosphere of 5% CO2 and 5% O2 in nitrogen for 7 days. 5-Methyl-[^3H]-thymidine (20 Ci.mmol^-1; 0.04 µCi per well), thymidine and 5-fluorodeoxyuridine (each at final concentrations of 0.5 µM) were added in medium to cultures (20 µl per well) 24 h before terminating the cultures. Cells were aspirated on to glass fibre filters using a multiple automated sample harvester (LKB Wallac OY Beta Harvester). The filter discs were washed for 15 seconds with water, dried, and the amount of tritium retained quantified by liquid scintillation.
# (§2) IC50 values were defined as in Paull K.D., et al., J. Natl. Cancer Inst. 1989, 81:1088-1092, where growth, as indicated by staining or thymidine incorporation, corresponded to 50% of that of the control cultures. […] Variances of DELTA values were expressed as standard deviations in log10 units. Comparison of DELTA values was made using Pearson correlation coefficients. Resistance factors were defined as the ratios of IC50 values between the resistant line and the parent line. Statistical evaluation was performed either with NCI programmes, with RS/1 software (BBN Research Systems, Cambridge, MA, USA), or with Sigmaplot (Jandel Scientific, San Rafael, CA, USA).
# human cell lines = experiment: Cytotoxicity under continuous drug exposure, mean over human cell lines; type: cell-based; conditions: read-out: mean IC50 value for human cell lines
# Method: The latter value compared with 2 µM for the 4-pyridyl-quinoline analogue, 0.76 µM for amsacrine, 0.1 µM for the amsacrine analogue 4'-(9-[4-[N-methylcarboxamido]-5-methyl]-acridinylamino)-methanesulphon-m-anisidide ("CI-921") and 81 µM for etoposide.
# B1D = experiment: Resistance factor, drug-resistant Jurkat leukaemia subline; type: cell-based, human
# Method: as §1, §2
# (§3) The effect of DACA on the growth of cultured cells was assessed by continuous drug exposure. […] Four multidrug-resistant cell lines, developed from JL and JB1 by in vitro exposure to increasing concentrations of doxorubicin (LD and B1D) or amsacrine (LA and B1A) (Finlay G.J., et al., J. Natl. Cancer Inst. 1990, 82, 662-667, Snow K., et al., Br. J. Cancer 1991, 63, 17-28) were tested.
# (§4) DACA was compared with six other drugs including four topo II poisons, doxorubicin, mitozantrone, etopo-side and amsacrine. […]
# B1A = experiment: as above; type: cell-based, human
# Method: as §1, §2, §3, §4
# LD = experiment: as above; type: cell-based, human
# Method: as §1, §2, §3, §4
# LA = experiment: as above; type: cell-based, human
# Method: as §1, §2, §3, §4
# [3] = system: primary human melanoma cultures; experiment: cells; conditions: for IC50: Homo sapiens, read-out: mean IC50
# Method: Acridine carboxamide hydrochloride, synthesised in the Cancer Research Laboratory (Atwell G.J., et al., J.Med. Chem. 1987, 30, 664-669), and amsacrine isethionate, obtained from the Parke-Davis Division of the Warner-Lambert Company, Ann Arbor, USA, were dissolved in 50% v/v aqueous ethanol to make stock solutions of 2-5 mmol/l and stored at -20°C. Other cytotoxic drugs were available either from the NCI repository (Monks A., et al., J. Natl. Cancer Inst. 1991, 83, 757-766) or were obtained as described in Marshall E.S., et al., J. Natl. Cancer Inst. 1992, 84, 341-344 and Finlay, et al., Eur. J. Cancer din. Oncol. 1986, 22, 655-662. Cell lines were from the NCI repository except for MM-96 (Dr. R. Whitehead, Ludwig Institute, Melbourne, Australia), FME (Dr. K.M. Tveit, Norwegian Radium Hospital, Oslo, Norway) and Jurkat normal and multidrug-resistant lines (Dr. K. Snow and Dr. W. Judd, Department of Cellular and Molecular Biology, University of Auckland). Melanoma tissue was obtained from patients with pathologically confirmed metastatic and recurrent melanomas under Auckland Hospital Ethical Committee guidelines. Cells were released by digestion of tissue (at 50 mg.ml^-1) with collagenase (1 mg.ml^-1) and DNAase (50 µg.ml^-1) with continuous stirring at 37°C for 1 to 2 hours, and cultured as previously described (Marshall E.S., et al., J. Natl. Cancer Inst. 1992, 84, 341-344).
# as §1, §2
# DACA was also compared in a series of 12 primary melanoma cultures. Tissue was excised from human malignant melanomas and cultured using a modified 96-well assay system in which the cells were cultured on agarose and assayed for proliferation using the ^3H-thymidine incorporation assay as described in Marshall E.S., et al., J. Natl. Cancer Inst. 1992, 84, 341-344.
# [4] = system: advanced colon 38 tumours; experiment: Tumour growth delay, advanced subcutaneous colon 38 tumours in mice; type: in vivo
# Method: Colon 38 carcinoma was obtained from the Mason Research Institute (Worchester, MA, USA) and was grown in BDF1 hosts. Tumour fragments (1 mm^3) were implanted subcutaneously in anaesthetised mice. Tumours had grown to the appropriate size 9 days after implantation. A melanoma tumour line (WADH) was developed in the Cancer Research Laboratory. Tumour cells were grown in culture and 1 x 10^6 cells were implanted intradermally into the flank of nude (C57BI/J genetic background) mice. Mice were grown under sterile surroundings until tumours were of appropriate size.
# Tumours were measured 3x (colon 38) or 2x (xeno-graft) weekly with callipers and tumour volumes calculated as 0.52a^2b, where a and b were the minor and major tumour axes. Tumour growth delays were measured at a time when tumour volumes of treated and control animals had increased by 4-fold.
# The effects of five compounds, • (i) DACA • (ii) N-[2-(dimethylamino)ethyl]-9-methoxyphen-azine-1-carboxamide (compound 28 of J. Med. Chem., 1987, 30, 843-851), • (iii) N-[2-(dimethylamino) ethyl]-2-phenylquino-line-8-carboxamide (compound 6 of J. Med. Chem. 1988, 31, 1048-1052), • (iv) N-[2-(dimethylamino)ethyl]-2-(4-pyridyl)-guinoline-8-carboxamide (compound 18 of J. Med. Chem., 1989, 32, 396-401), and • (v) N-[2-(dimethylamino)ethyl]-9-bromo-dibenzo-[1,4]-dioxin-1-carboxamide (compound 20 of J. Med. Chem. 1992, 35, 258-266) on the growth of advanced colon 38 tumours in mice was investigated by implanting tumour fragments subcutaneously and allowing them to grow until they had reached a diameter of 5-8 mm.
# [5] = system: sublines of Jurkat leukaemia cells; experiment: Cross-resistance of Jurkat sublines selected for resistance to amsacrine; type: cell-based, human; conditions: two lines selected for resistance to amsacrine
# Method: Two of these lines had been selected for resistance to amsacrine, and were more than 100-fold cross-resistant to amsacrine but only 2- to 4-fold cross-resistant to DACA. […] We believe that this ability to overcome resistance mechanisms accounts for the different IC50 patterns observed with the human cell line panels.
# Tumour cell lines were cultured in 96-well plates. […] Primary cultures were incubated at 37°C in sealed perspex boxes containing a humidified atmosphere of 5% CO2 and 5% O2 in nitrogen for 7 days. 5-Methyl-[^3H]-thymidine (20 Ci.mmol^-1; 0.04 µCi per well), thymidine and 5-fluorodeoxyuridine (each at final concentrations of 0.5 µM) were added in medium to cultures (20 µl per well) 24 h before terminating the cultures.
# 1989, 81:1088-1092, where growth, as indicated by staining or thymidine incorporation, corresponded to 50% of that of the control cultures.
# [6] = human, jurkat leukaemia sublines
# [7] = 100mg/kg each injection, ip, 2 doses, 0, 60 min
# [8] = B1D (from B1 by exposure to doxorubicin), ratio of IC50 resistant line / parent line
# [9] = B1A (from B1 by exposure to amsacrine), ratio of IC50 resistant line / parent line
# [10] = LD (from L by exposure to doxorubicin), ratio of IC50 resistant line / parent line
# [11] = LA (from L by exposure to amsacrine), ratio of IC50 resistant line / parent line
# [12] = maximum tolerated dose of the comparison drug
compound,measurement,setting,value
CN(Cc1cnc2nc(N)nc(N)c2n1)c1ccc(C(=O)N[C@@H](CCC(=O)O)C(=O)O)cc1 [Methotrexate],Percentage of xenografts responding,[1],7%
Mitomycin C,Percentage of xenografts responding,[1],32%
COc1cc([C@@H]2c3cc4c(cc3[C@@H](O[C@@H]3O[C@@H]5CO[C@@H](C)O[C@H]5[C@H](O)[C@H]3O)[C@H]3COC(=O)[C@H]23)OCO4)cc(OC)c1O [etoposide],IC50,[2],21 µM
same,IC50,human cell lines,81 µM
same,Resistance factors,B1D; [6],83
same,Resistance factors,B1A; [6],22
same,Resistance factors,LD; [6],93
same,Resistance factors,LA; [6],11
same,Percentage of xenografts responding,[1],0% (2 studies)
same,IC50,[3],2.2 µM
same,proportions of cells killed,"[3]; human, primary melanoma cultures",≤ 90%
"CN(C)CCNC(=O)c1cccc2c1Oc1c(Br)cccc1O2 [(v), N-[2-(dimethylamino)ethyl]-9-bromo-dibenzo-[1,4]-dioxin-1-carboxamide]",Growth delay,[4]; [7],7 days
CC[C@@]1(O)C(=O)OCc2c1cc1n(c2=O)Cc2cc3ccccc3nc2-1 [camptothecin],Resistance factors,B1D; [8],0.86
same,Resistance factors,B1A; [9],0.48
same,Resistance factors,LD; [10],0.97
same,Resistance factors,LA; [11],1.0
CC[C@]1(O)C[C@@H]2CN(CCc3c([nH]c4ccccc34)[C@@](C(=O)OC)(c3cc4c(cc3OC)N(C)[C@H]3[C@@](O)(C(=O)OC)[C@H](OC(C)=O)[C@]5(CC)C=CCN6CC[C@]43[C@@H]65)C2)C1 [Vinblastine],Percentage of xenografts responding,[1],10%
Bleomycin,Percentage of xenografts responding,[1],0%
N.N.[Cl][Pt][Cl] [Cisplatin],Percentage of xenografts responding,[1],13%
"CN(C)CCNC(=O)c1cccc2ccc(-c3ccccc3)nc12 [(iii), N-[2-(dimethylamino)ethyl]-2-phenylquino-line-8-carboxamide]",Growth delay,"[4]; 75mg/kg each injection, ip, 2 doses, 0,60 min",8.5 days
"COc1cccc2nc3cccc(C(=O)NCCN(C)C)c3nc12 [(ii), N-[2-(dimethylamino)ethyl]-9-methoxyphen-azine-1-carboxamide]",Growth delay (days),[4]; [7],"5,5 (2 expts) days"
"CN(C)CCNC(=O)c1cccc2ccc(-c3ccncc3)nc12 [(iv), N-[2-(dimethylamino)ethyl]-2-(4-pyridyl)-guinoline-8-carboxamide]",IC50,human cell lines; continuous drug exposure over approx. 5 cell doubling times,2 µM
same,Growth delay,"[4]; 50mg/kg each injection, ip, 2 doses, 0,60 min",5 days
COc1cc(NS(C)(=O)=O)ccc1Nc1c2ccccc2nc2ccccc12 [amsacrine],IC50,[2],0.52 µM
same,IC50,human cell lines,0.76 µM
same,Resistance factors,B1D; [8],8.8
same,Resistance factors,B1A; [9],240
same,Resistance factors,LD; [10],110
same,Resistance factors,LA; [11],130
same,IC50,[3],0.128 µM
same,cross-resistance,[5],more than 100 fold
same,Growth delay,[4]; [12],2 days
CC[C@]1(O)C[C@H]2CN(CCc3c([nH]c4ccccc34)[C@@](C(=O)OC)(c3cc4c(cc3OC)N(C=O)[C@H]3[C@@](O)(C(=O)OC)[C@H](OC(C)=O)[C@]5(CC)C=CCN6CC[C@]43[C@@H]65)C2)C1 [vincristine],Resistance factors,B1D; [6],10
same,Resistance factors,B1A; [6],2.0
same,Resistance factors,LD; [6],3.6
same,Resistance factors,LA; [6],1.5
same,Percentage of xenografts responding,[1],43%
"O=c1[nH]cc(F)c(=O)[nH]1 [5-fluorouracil, reference compound]",Percentage of xenografts responding,[1],14%
same,Growth delay,[4]; [12],13 days
"O=P1(N(CCCl)CCCl)NCCCO1 (centres unmarked) [cyclophosphamide, reference compound]",Percentage of xenografts responding,[1],11%
same,Growth delay,[4]; [12],6.5 days
COc1cccc2c1C(=O)c1c(O)c3c(c(O)c1C2=O)C[C@@](O)(C(=O)CO)C[C@@H]3O[C@H]1C[C@H](N)[C@H](O)[C@H](C)O1 [doxorubicin],IC50,[2],0.14 µM
same,Resistance factors,B1D; [6],15
same,Resistance factors,B1A; [6],11
same,Resistance factors,LD; [6],16
same,Resistance factors,LA; [6],3.8
same,Percentage of xenografts responding,[1],5% (total of 5 studies)
same,IC50,[3],0.056 µM
O=C1c2c(O)ccc(O)c2C(=O)c2c(NCCNCCO)ccc(NCCNCCO)c21 [mitoxantrone],Resistance factors,B1D; [8],8.4
same,Resistance factors,B1A; [9],59
same,Resistance factors,LD; [10],160
same,Resistance factors,LA; [11],42
"CNC(=O)c1cccc2c(Nc3ccc(NS(C)(=O)=O)cc3OC)c3cccc(C)c3nc12 [CI-921, 4'-(9-[4-[N-methylcarboxamido]-5-methyl]-acridinylamino)-methanesulphon-m-anisidide]",IC50,human cell lines,0.1 µM
